Measurements taken from the supplement of paper PMC10307832.

compound: C1CCC(CC1)N(CCNCCC2=C3C(=C(C=C2)O)NC(=O)CO3)C(=O)CCNCCC4=CC(=C(C=C4)Cl)Cl [AZ505] + C[C@]1(O)C[C@@H](c2nc(-c3ccc4ccc(-c5ccccc5)nc4c3)c3c(N)nccn32)C1 [Linsitinib] (partner 1 µM); assay: relative viability (nuclei count vs DMSO), 5 days (fraction); higher = more cells survive; settings: first compound 0.08 µM
Summary of the method: (§1)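 Lung cancer cell lines, seeded in 1536-well plates, were treated the following day by pin tool with a single drug or with five library-drug doses (not always all listed) in √10 steps on top of a fixed anchor-drug dose. Cells were fixed and nuclei stained in one step after 5 days, and nuclei were counted. Relative viability is the nuclei count for treated wells divided by that for vehicle wells, reported as medians of duplicate plates.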

| Cell Line | relative viability |
| --- | --- |
| NCI-H727 | 0.388 |
| EBC-1 | 0.87 |
| NCI-H1703 | 0.635 |
| NCI-H1993 | 0.677 |
| SK-LU-1 | 0.45 |
| NCI-H838 | 0.965 |
| LCLC-103H | 1.01 |
| NCI-H520 | 0.911 |
| NCI-H2126 | 0.681 |
| EMC-BAC-2 | 0.767 |
| NCI-H2085 | 0.817 |
| Calu-6 | 0.872 |
| HCC-366 | 0.534 |
| NCI-H1666 | 0.835 |
| NCI-H596 | 0.953 |
| LK-2 | 0.408 |
| NCI-H2087 | 0.986 |
| SK-MES-1 | 0.89 |
| H3255 | 0.836 |
| COR-L23 | 0.684 |
| COR-L 105 | 0.703 |
| IA-LM | 0.497 |
| LOU-NH91 | 0.838 |
| NCI-H2405 | 0.585 |
| HOP-62 | 0.932 |
| A549 | 0.452 |
| NCI-H441 | 0.513 |
| NCI-H1395 | 0.972 |
| NCI-H1299 | 0.913 |
| NCI-H1793 | 0.766 |

same assay, conditions: first compound 0.253 µM

| Cell Line | relative viability |
| --- | --- |
| NCI-H727 | 0.24 |
| EBC-1 | 0.833 |
| NCI-H1703 | 0.588 |
| NCI-H1993 | 0.654 |
| SK-LU-1 | 0.592 |
| NCI-H838 | 1.03 |
| LCLC-103H | 0.807 |
| NCI-H520 | 1.1 |
| NCI-H2126 | 0.724 |
| EMC-BAC-2 | 0.834 |
| NCI-H2085 | 0.923 |
| Calu-6 | 0.929 |
| HCC-366 | 0.552 |
| NCI-H1666 | 0.718 |
| NCI-H596 | 0.932 |
| LK-2 | 0.703 |
| NCI-H2087 | 0.846 |
| SK-MES-1 | 0.922 |
| H3255 | 1 |
| COR-L23 | 0.772 |
| COR-L 105 | 1.05 |
| IA-LM | 0.572 |
| LOU-NH91 | 0.92 |
| NCI-H2405 | 0.639 |
| HOP-62 | 1.03 |
| A549 | 0.503 |
| NCI-H441 | 0.51 |
| NCI-H1395 | 1.01 |
| NCI-H1299 | 0.942 |
| NCI-H1793 | 0.769 |

same assay, conditions: first compound 0.8 µM

| Cell Line | relative viability |
| --- | --- |
| NCI-H727 | 0.272 |
| EBC-1 | 1.01 |
| NCI-H1703 | 1.17 |
| NCI-H1993 | 0.728 |
| SK-LU-1 | 0.798 |
| NCI-H838 | 1.02 |
| LCLC-103H | 1.03 |
| NCI-H520 | 0.85 |
| NCI-H2126 | 0.721 |
| EMC-BAC-2 | 0.813 |
| NCI-H2085 | 0.93 |
| Calu-6 | 0.851 |
| HCC-366 | 0.672 |
| NCI-H1666 | 0.849 |
| NCI-H596 | 0.933 |
| LK-2 | 0.578 |
| NCI-H2087 | 0.986 |
| SK-MES-1 | 0.97 |
| H3255 | 0.918 |
| COR-L23 | 0.749 |
| COR-L 105 | 0.761 |
| IA-LM | 0.701 |
| LOU-NH91 | 0.857 |
| NCI-H2405 | 0.62 |
| HOP-62 | 1.08 |
| A549 | 0.622 |
| NCI-H441 | 0.662 |
| NCI-H1395 | 0.949 |
| NCI-H1299 | 0.965 |
| NCI-H1793 | 0.932 |

same assay, conditions: first compound 2.53 µM

| Cell Line | relative viability |
| --- | --- |
| NCI-H727 | 0.427 |
| EBC-1 | 0.841 |
| NCI-H1703 | 0.997 |
| NCI-H1993 | 0.91 |
| SK-LU-1 | 0.588 |
| NCI-H838 | 0.997 |
| LCLC-103H | 1.06 |
| NCI-H520 | 1.04 |
| NCI-H2126 | 0.711 |
| EMC-BAC-2 | 0.822 |
| NCI-H2085 | 0.918 |
| Calu-6 | 0.92 |
| HCC-366 | 0.599 |
| NCI-H1666 | 0.726 |
| NCI-H596 | 1 |
| LK-2 | 0.427 |
| NCI-H2087 | 0.932 |
| SK-MES-1 | 0.879 |
| H3255 | 0.983 |
| COR-L23 | 0.855 |
| COR-L 105 | 0.779 |
| IA-LM | 0.597 |
| LOU-NH91 | 0.915 |
| NCI-H2405 | 0.563 |
| HOP-62 | 0.863 |
| A549 | 0.565 |
| NCI-H441 | 0.543 |
| NCI-H1395 | 0.971 |
| NCI-H1299 | 0.903 |
| NCI-H1793 | 1.03 |

same assay, conditions: first compound 8 µM

| Cell Line | relative viability |
| --- | --- |
| NCI-H727 | 0.275 |
| EBC-1 | 0.896 |
| NCI-H1703 | 0.853 |
| NCI-H1993 | 0.7 |
| SK-LU-1 | 0.765 |
| NCI-H838 | 0.928 |
| LCLC-103H | 1.07 |
| NCI-H520 | 0.955 |
| NCI-H2126 | 0.68 |
| EMC-BAC-2 | 0.879 |
| NCI-H2085 | 0.968 |
| Calu-6 | 0.956 |
| HCC-366 | 0.678 |
| NCI-H1666 | 0.941 |
| NCI-H596 | 0.908 |
| LK-2 | 0.812 |
| NCI-H2087 | 0.973 |
| SK-MES-1 | 1.03 |
| H3255 | 0.929 |
| COR-L23 | 0.692 |
| COR-L 105 | 1.01 |
| IA-LM | 0.643 |
| LOU-NH91 | 0.962 |
| NCI-H2405 | 0.714 |
| HOP-62 | 1.08 |
| A549 | 0.562 |
| NCI-H441 | 0.509 |
| NCI-H1395 | 1 |
| NCI-H1299 | 0.922 |
| NCI-H1793 | 1.06 |

compound: Cn1c(=O)n(-c2ccc(C(C)(C)C#N)cc2)c2c3cc(-c4cnc5ccccc5c4)ccc3ncc21 [Dactolisib] + COc1cccc2cc(-c3nc([C@H]4CC[C@H](C(=O)O)CC4)n4ncnc(N)c34)[nH]c12 [OSI-027] (partner 0.5 µM); assay: as above; settings: first compound 0.002 µM
Summary of the method: as §1

| Cell Line | relative viability |
| --- | --- |
| NCI-H2342 | 0.684 |
| NCI-H1623 | 0.49 |
| NCI-H727 | 0.519 |
